Laboratory results from patent publication US20230212163A1, “2-(HET)ARYL-SUBSTITUTED CONDENSED HETEROCYCLIC DERIVATIVES AS PEST CONTROL AGENTS” (Bayer Aktiengesellschaft, priority 2020, published 2023).

Assays:
Type in all cases: in vivo
Heliothis armigera = Heliothis armigera spray test (HELIAR), comparative; conditions: Helicoverpa armigera, 168 h, 7 dat, read-out: % efficacy
Description: (§1) [table] To produce a suitable active compound formulation, 1 part by weight of active compound is dissolved using the stated parts by weight of solvent and made up with water containing an emulsifier concentration of 1000 ppm until the desired concentration is attained. To produce further test concentrations, the formulation is diluted with emulsifier-containing water. If the addition of ammonium salts or/and penetrants is required, these are each added in a concentration of 1000 ppm to the formulation solution. Cotton plants (Gossypium hirsutum) are sprayed with an active compound formulation of the desired concentration and, after drying, populated with caterpillars of the cotton bollworm (Heliothis armigera). After the desired time, the kill in % is determined. 100% means that all caterpillars have been killed; 0% means that none of the caterpillars have been killed.

Spodoptera frugiperda [1] = assay: Spodoptera frugiperda spray test (maize leaf discs); conditions: Spodoptera frugiperda, foliar, 168 h, application rate 100 g/ha, after 7 days
Description: (§2) [table] To produce a suitable active compound formulation, 1 part by weight of active compound is dissolved using the stated parts by weight of solvent and made up with water containing an emulsifier concentration of 1000 ppm until the desired concentration is attained. To produce further test concentrations, the formulation is diluted with emulsifier-containing water. Leaf discs of maize (Zea mays) are sprayed with an active compound formulation of the desired concentration and, after drying, populated with caterpillars of the fall armyworm (Spodoptera frugiperda). After 7 days, the efficacy in % is determined. 100% means that all the caterpillars have been killed; 0% means that no caterpillar has been killed.

Phaedon cochleariae = Phaedon cochleariae spray test; conditions: application rate 100 g/ha, after 7 days
Description: as §2, with “water. Discs” for “water. Leaf discs”, “of Chinese cabbage leaves (Brassica pekinensis)” for “of maize (Zea mays)”, “with larvae” for “with caterpillars”, “the mustard beetle (Phaedon cochleariae).” for “the fall armyworm (Spodoptera frugiperda).”, “the beetle larvae” for “the caterpillars”, “no beetle larvae have” for “no caterpillar has”

Spodoptera frugiperda [2] = assay: Spodoptera frugiperda spray test (SPODFR, cotton leaves), comparative; conditions: 168 h, 7 dat, read-out: % efficacy
Description: as §1, with “leaves” for “plants”, “and” for “and, after drying,”, “armyworm (Spodoptera frugiperda).” for “cotton bollworm (Heliothis armigera).”

Myzus persicae [3] = assay: Myzus persicae oral test; conditions: 120 h, application rate 4 ppm, after 5 days, read-out: efficacy
Description: [table] To produce a suitable active compound formulation, 1 part by weight of active compound is dissolved using the specified parts by weight of solvent and made up with water until the desired concentration is attained. 50 μl of the active compound formulation are transferred into microtitre plates and made up to a final volume of 200 μl with 150 μl of IPL41 insect medium (33%+15% sugar). Subsequently, the plates are sealed with parafilm, which a mixed population of green peach aphids (Myzus persicae) within a second microtitre plate is able to puncture and imbibe the solution through. After 5 days, the efficacy in % is determined. 100% means that all the aphids have been killed; 0% means that no aphids have been killed.

Plutella xylostella = Plutella xylostella spray test (PLUTMA), comparative; conditions: 168 h, 7 dat, read-out: % efficacy
Description: as §1, with “solution. Cabbage leaves (Brassica oleracea)” for “solution. Cotton plants (Gossypium hirsutum)”, “concentration and infected” for “concentration and, after drying, populated”, “with larvae” for “with caterpillars”, “the diamondback moth (Plutella xylostella).” for “the cotton bollworm (Heliothis armigera).”

Myzus persicae [4] = assay: Myzus persicae spray test; conditions: application rate 100 g/ha, after 5 days
Description: as §2, with “Discs” for “Leaf discs”, “Chinese cabbage leaves (Brassica pekinensis) infested by all stages of the green peach aphid (Myzus persicae)” for “maize (Zea mays)”, “concentration.” for “concentration and, after drying, populated with caterpillars of the fall armyworm (Spodoptera frugiperda).”, “5” for “7”, “aphids” for “caterpillars”, “aphids have” for “caterpillar has”

Diabrotica balteata = Diabrotica balteata spray test; conditions: Diabrotica balteata, 168 h, application rate 100 g/ha, after 7 days
Description: [table] To produce a suitable active compound formulation, 1 part by weight of active compound is dissolved using the stated parts by weight of solvent and made up with water containing an emulsifier concentration of 1000 ppm until the desired concentration is attained. To produce further test concentrations, the formulation is diluted with emulsifier-containing water. Pre-swollen wheat grains (Triticum aestivum) are incubated in a multiwell plate filled with agar and a little water for one day (5 seed grains per cavity). The germinated wheat grains are sprayed with an active compound formulation of the desired concentration. Subsequently, each cavity is infected with 10-20 beetle larvae of Diabrotica balteata. After 7 days, the efficacy in % is determined. 100% means that all wheat plants have grown as in the untreated, uninfected control; 0% means that no wheat plant has grown.

Meloidogyne incognita = Meloidogyne incognita test; conditions: application rate 20 ppm, after 14 days
Description: [table] To produce an appropriate active ingredient formulation, 1 part by weight of active ingredient is mixed with the stated amount of solvent and the concentrate is diluted to the desired concentration with water. Vessels are filled with sand, active ingredient solution, an egg/larvae suspension of the southern root-knot nematode (Meloidogyne incognita) and lettuce seeds. The lettuce seeds germinate and the plants develop. The galls develop on the roots. After 14 days, the nematicidal efficacy in % is determined by the formation of galls. 100% means that no galls were found; 0% means that the number of galls on the treated plants corresponds to the untreated control.

Nezara viridula = Nezara viridula spray test; conditions: Nezara viridula, 96 h, application rate 500 g/ha, after 4 days
Description: [table] To produce a suitable active compound formulation, 1 part by weight of active compound is dissolved using the stated parts by weight of solvent and made up with water containing an emulsifier concentration of 1000 ppm until the desired concentration is attained. To produce further test concentrations, the formulation is diluted with emulsifier-containing water. Barley plants (Hordeum vulgare) are sprayed with an active compound formulation of the desired concentration and are infected with larvae of the Southern green shield bug (Nezara viridula). After 4 days, the efficacy in % is determined. 100% means that all of the shield bugs have been killed; 0% means that none of the shield bugs have been killed.

SMILES	Emax at 0.8 ppm (Heliothis armigera) [%]	Emax at 4 ppm (Heliothis armigera) [%]	pest or weed control at 100 g/ha (Spodoptera frugiperda [1]) [%]	activity (Phaedon cochleariae) [%]	Emax at 0.8 ppm (Spodoptera frugiperda [2]) [%]	pest or weed control at 4 ppm (Myzus persicae [3]) [%]	Emax at 0.8 ppm (Plutella xylostella) [%]	activity (Myzus persicae [4]) [%]	Emax at 4 ppm (Plutella xylostella) [%]	pest or weed control at 100 g/ha (Diabrotica balteata) [%]	nematicidal efficacy (formation of galls) (Meloidogyne incognita) [%]	pest or weed control at 500 g/ha (Nezara viridula) [%]
CCS(=O)(=O)c1ccc(-n2ncn(-c3ccc(Cl)cc3)c2=O)nc1-c1nc2cc(S(=O)(=O)C(F)(F)F)ccc2o1 [Example I-02]	100	100	100	100	100	90	100	–	–	–	–	–
CCS(=O)(=O)c1ccc(-n2ncn(C3CC3)c2=O)nc1-c1nc2cc(S(=O)(=O)C(F)(F)F)ccc2o1 [Example I-03]	–	–	100	100	–	100	–	100	–	–	–	–
CCS(=O)(=O)c1ccc(-n2ncn(-c3ccc(F)cc3)c2=O)nc1-c1nc2cc(S(=O)(=O)C(F)(F)F)ccc2o1 [Example I-04]	–	100	100	100	100	100	–	–	100	–	–	–
CCS(=O)(=O)c1ccc(-n2ncn(-c3ccc(C4(C#N)CC4)cc3)c2=O)nc1-c1nc2cc(S(=O)(=O)C(F)(F)Cl)ccc2o1 [Example I-18]	–	–	–	–	–	–	–	–	–	100	100	–
CCS(=O)(=O)c1ccc(-n2ncn(-c3ccc(OC)nc3)c2=O)nc1-c1nc2cc(S(=O)(=O)C(F)(F)F)ccc2o1 [Example I-43]	–	–	83	–	–	–	–	–	–	80	90	90
CCc1nc(C(F)(F)F)cc2nc(-c3nc(-n4ncn(-c5ccc(O)cc5)c4=O)ccc3S(=O)(=O)CC)n(C)c12 [I-016 Known from WO2018/141954, reference compound]	10	55	–	–	65	–	70	–	–	–	–	–
CCS(=O)(=O)c1ccc(-n2cnn(-c3ccccc3F)c2=O)nc1-c1nc2cc(C(F)(F)F)ccc2n1C [I-34 Known from WO2017/055185, reference compound]	–	0	–	–	0	–	–	–	0	–	–	–
